Where two headings read alike, the source gives them in different places.
Columns and labels:
[1] = biological target: T1, human somatostatin receptor subtype 2 (Homo sapiens, UniProt P30874); experiment: cAMP assay for SST2R (inhibition of cAMP in CHO-K1 cells); format: cell-based; conditions: Table B; inhibition of cAMP via human SST2 receptor; read-out: SST2 potency
T1 construct: expressed in transfected cells
Outline: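 Agonism read as decrease in NKH477 (1.6 μM)-stimulated cAMP: compounds applied 20 min, 37° C, with 0.2 mM IBMX, to CHO-K1 stably expressing human SSTR2. cAMP quantified in lysates by time-resolved fluorescence (HTRF kit, 1-24 h RT), standard-curve regression, then EC50.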

[2] = biological target: T2, human somatostatin receptor subtype 5 (Homo sapiens, UniProt P35346); experiment: cAMP assay for SST5R (inhibition of cAMP in CHO-K1 cells); format: cell-based; conditions: for EC50: inhibition of cAMP via human SST5 receptor, read-out: SST5 potency; for Fold selectivity for SST5 vs SST2: class symbols, SST5 receptor over SST2 receptor
T2 construct: expressed in transfected cells
T2 sequence (P35346 whole entry): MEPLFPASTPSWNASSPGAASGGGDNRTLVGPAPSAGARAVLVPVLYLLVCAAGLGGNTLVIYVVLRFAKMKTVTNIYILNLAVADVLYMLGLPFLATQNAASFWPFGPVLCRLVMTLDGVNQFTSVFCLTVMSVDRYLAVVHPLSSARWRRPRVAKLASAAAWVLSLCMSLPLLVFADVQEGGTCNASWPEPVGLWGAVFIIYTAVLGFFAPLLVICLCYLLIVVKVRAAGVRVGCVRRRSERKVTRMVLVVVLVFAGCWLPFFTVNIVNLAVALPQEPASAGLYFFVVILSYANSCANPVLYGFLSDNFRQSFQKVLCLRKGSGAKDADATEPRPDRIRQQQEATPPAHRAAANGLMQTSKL
Outline: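 CHO-K1 cells stably expressing human SSTR5 were treated 20 min at 37 °C with compounds plus 1.6 μM NKH477 in HBSS, 0.5 mM HEPES pH 7.4, 0.1% BSA, 0.2 mM IBMX. Lysate cAMP measured by HTRF against a standard curve; EC50 from cAMP-versus-concentration plots.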

T1 sequence (P30874 whole entry): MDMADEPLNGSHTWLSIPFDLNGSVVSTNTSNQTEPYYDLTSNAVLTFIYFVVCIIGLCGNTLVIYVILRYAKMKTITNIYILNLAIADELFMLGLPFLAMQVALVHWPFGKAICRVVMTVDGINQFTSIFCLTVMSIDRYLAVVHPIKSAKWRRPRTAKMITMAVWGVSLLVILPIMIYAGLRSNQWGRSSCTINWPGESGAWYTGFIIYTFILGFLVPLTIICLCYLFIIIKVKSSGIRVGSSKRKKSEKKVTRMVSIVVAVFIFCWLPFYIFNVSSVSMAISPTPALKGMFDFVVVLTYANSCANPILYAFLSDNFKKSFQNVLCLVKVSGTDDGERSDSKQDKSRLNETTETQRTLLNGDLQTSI

| EC50 [1] | EC50 ([2]; Table A) | Fold selectivity for SST5 vs SST2 ([2]; Table B) | EC50 ([2]; Table B) | Structure (SMILES) |
| --- | --- | --- | --- | --- |
| 100 to 1000 nM | < 10 nM | +++ (+++=>500) | < 10 nM | C[C@H](NC(=O)c1cnc(C#N)c(-c2cc(F)cc(F)c2)c1N1CC[C@H](N)C1)C1CC1 [1-69, 4-[(3S)-3-aminopyrrolidin-1-yl]-6-cyano-N-[(1S)-1-cyclopropylethyl]-5-(3,5-difluorophenyl)pyridine-3-carboxamide] |
| 100 to 1000 nM | < 10 nM | +++ (+++=>500) | < 10 nM | C[C@H](NC(=O)c1cnc(C#N)c(-c2cc(F)cc(F)c2)c1N1CC[C@H](N)C1)C(F)(F)F [1-71, 4-[(3S)-3-aminopyrrolidin-1-yl]-6-cyano-5-(3,5-difluorophenyl)-N-[(2S)-1,1,1-trifluoropropan-2-yl]pyridine-3-carboxamide] |
| > 1000 nM | < 10 nM | +++ (+++=>500) | < 10 nM | CCC(CC)NC(=O)c1cnc(C#N)c(-c2cc(F)cc(F)c2)c1N1CC[C@](C)(N)C1 [1-76, 4-[(3S)-3-amino-3-methylpyrrolidin-1-yl]-6-cyano-5-(3,5-difluorophenyl)-N-(pentan-3-yl)pyridine-3-carboxamide] |
| 100 to 1000 nM | < 10 nM | +++ (+++=>500) | < 10 nM | CC(C)CNC(=O)c1cnc(C#N)c(-c2cc(F)cc(F)c2)c1N1CC[C@](C)(N)C1 [1-85, 4-[(3S)-3-amino-3-methylpyrrolidin-1-yl]-6-cyano-5-(3,5-difluorophenyl)-N-(2-methylpropyl)pyridine-3-carboxamide] |
| 100 to 1000 nM | < 10 nM | +++ (+++=>500) | < 10 nM | C[C@]1(N)CCN(c2c(C(=O)NCC3CC3)cnc(C#N)c2-c2cc(F)cc(F)c2)C1 [1-86, 4-[(3S)-3-amino-3-methylpyrrolidin-1-yl]-6-cyano-N-(cyclopropylmethyl)-5-(3,5-difluorophenyl)pyridine-3-carboxamide] |
| 100 to 1000 nM | < 10 nM | +++ (+++=>500) | < 10 nM | C[C@]1(N)CCN(c2c(C(=O)NC3CCC3)cnc(C#N)c2-c2cc(F)cc(F)c2)C1 [1-87, 4-[(3S)-3-amino-3-methylpyrrolidin-1-yl]-6-cyano-N-cyclobutyl-5-(3,5-difluorophenyl)pyridine-3-carboxamide] |
| 100 to 1000 nM | < 10 nM | +++ (+++=>500) | < 10 nM | CC(C)NC(=O)c1cnc(C#N)c(-c2cc(F)cc(F)c2)c1N1CC[C@](C)(N)C1 [1-91, 4-[(3S)-3-amino-3-methylpyrrolidin-1-yl]-6-cyano-5-(3,5-difluorophenyl)-N-(propan-2-yl)pyridine-3-carboxamide] |
| 100 to 1000 nM | < 10 nM | +++ (+++=>500) | < 10 nM | C[C@]1(N)CCN(c2c(C(=O)NCC(F)(F)F)cnc(C#N)c2-c2cc(F)cc(F)c2)C1 [1-92, 4-[(3S)-3-amino-3-methylpyrrolidin-1-yl]-6-cyano-5-(3,5-difluorophenyl)-N-(2,2,2-trifluoroethyl)pyridine-3-carboxamide] |
| 100 to 1000 nM | < 10 nM | ++ (++=100 to 499) | < 10 nM | COc1cc(C#N)cc(-c2cncc(C(=O)NC34CC(C3)C4)c2N2CC[C@](C)(N)C2)c1 [1-94, 4-[(3S)-3-amino-3-methylpyrrolidin-1-yl]-N-{bicyclo[1.1.1]pentan-1-yl}-5-(3-cyano-5-methoxyphenyl)pyridine-3-carboxamide] |
| > 1000 nM | < 10 nM | +++ (+++=>500) | < 10 nM | CC(N)C1CN(c2c(C(=O)NC34CC(C3)C4)cnc(C#N)c2-c2cc(F)cc(F)c2)C1 (centres unmarked) [1-100, 4-[3-(1-aminoethyl)azetidin-1-yl]-N-{bicyclo[1.1.1]pentan-1-yl}-6-cyano-5-(3,5-difluorophenyl)pyridine-3-carboxamide] |
| > 1000 nM | < 10 nM | +++ (+++=>500) | < 10 nM | N#Cc1ncc(C(=O)NC23CC(C2)C3)c(N2C[C@@H](N)[C@H](F)C2)c1-c1cc(F)cc(F)c1 [1-101, 4-[(3R,4R)-3-amino-4-fluoropyrrolidin-1-yl]-N-{bicyclo[1.1.1]pentan-1-yl}-6-cyano-5-(3,5-difluorophenyl)pyridine-3-carboxamide] |

Second part, the compound before the results:

| Structure (SMILES) | EC50 [1] | EC50 ([2]; Table A) | Fold selectivity for SST5 vs SST2 ([2]; Table B) | EC50 ([2]; Table B) |
| --- | --- | --- | --- | --- |
| N#Cc1ncc(C(=O)NC(C2CC2)C2CC2)c(N2CC[C@H](N)C2)c1-c1cc(F)cc(F)c1 [1-70, 4-[(3S)-3-aminopyrrolidin-1-yl]-6-cyano-N-(dicyclopropylmethyl)-5-(3,5-difluorophenyl)pyridine-3-carboxamide] | > 1000 nM | < 10 nM | +++ (+++=>500) | < 10 nM |
| CCC(CC)NC(=O)c1cnc(C#N)c(-c2cc(F)cc(F)c2)c1N1CC[C@H](N)C1 [1-72, 4-[(3S)-3-aminopyrrolidin-1-yl]-6-cyano-5-(3,5-difluorophenyl)-N-(pentan-3-yl)pyridine-3-carboxamide] | 100 to 1000 nM | < 10 nM | +++ (+++=>500) | < 10 nM |
| N#Cc1ncc(C(=O)NC2CCCCCC2)c(N2CC[C@H](N)C2)c1-c1cc(F)cc(F)c1 [1-73, 4-[(3S)-3-aminopyrrolidin-1-yl]-6-cyano-N-cycloheptyl-5-(3,5-difluorophenyl)pyridine-3-carboxamide] | > 1000 nM | < 10 nM | +++ (+++=>500) | < 10 nM |
| Cc1ncc(C(=O)NC23CC(C2)C3)c(N2CC[C@](C)(N)C2)c1-c1cc(F)cc(F)c1 [1-74, 4-[(3S)-3-amino-3-methylpyrrolidin-1-yl]-N-{bicyclo[1.1.1]pentan-1-yl}-5-(3,5-difluorophenyl)-6-methylpyridine-3-carboxamide] | > 1000 nM | < 10 nM | +++ (+++=>500) | < 10 nM |
| C[C@H](NC(=O)c1cnc(C#N)c(-c2cc(F)cc(F)c2)c1N1CC[C@](C)(N)C1)C1CC1 [1-77, 4-[(3S)-3-amino-3-methylpyrrolidin-1-yl]-6-cyano-N-[(1S)-1-cyclopropylethyl]-5-(3,5-difluorophenyl)pyridine-3-carboxamide] | 10 to 100 nM | < 10 nM | +++ (+++=>500) | < 10 nM |
| C[C@]1(N)CCN(c2c(C(=O)NC3CCCC3)cnc(C#N)c2-c2cc(F)cc(F)c2)C1 [1-78, 4-[(3S)-3-amino-3-methylpyrrolidin-1-yl]-6-cyano-N-cyclopentyl-5-(3,5-difluorophenyl)pyridine-3-carboxamide] | 10 to 100 nM | < 10 nM | +++ (+++=>500) | < 10 nM |
| C[C@]1(N)CCN(c2c(C(=O)NC3CC(F)(F)C3)cnc(C#N)c2-c2cc(F)cc(F)c2)C1 [1-79, 4-[(3S)-3-amino-3-methylpyrrolidin-1-yl]-6-cyano-N-(3,3-difluorocyclobutyl)-5-(3,5-difluorophenyl)pyridine-3-carboxamide] | 100 to 1000 nM | < 10 nM | +++ (+++=>500) | < 10 nM |
| N#Cc1ncc(C(=O)NC2CCCCC2)c(N2CC[C@H](N)C2)c1-c1cc(F)cc(F)c1 [1-81, 4-[(3S)-3-aminopyrrolidin-1-yl]-6-cyano-N-cyclohexyl-5-(3,5-difluorophenyl)pyridine-3-carboxamide] | 100 to 1000 nM | < 10 nM | +++ (+++=>500) | < 10 nM |
| N#Cc1ncc(C(=O)NC23CC(C2)C3)c(N2CC[C@H](N)C2)c1-c1cc(F)cc(Cl)c1 [1-90, 4-[(3S)-3-aminopyrrolidin-1-yl]-N-{bicyclo[1.1.1]pentan-1-yl}-5-(3-chloro-5-fluorophenyl)-6-cyanopyridine-3-carboxamide] | 100 to 1000 nM | < 10 nM | +++ (+++=>500) | < 10 nM |
| C[C@]1(N)CCN(c2c(C(=O)NC3CCCCC3)cnc(C#N)c2-c2cc(F)cc(F)c2)C1 [1-93, 4-[(3S)-3-amino-3-methylpyrrolidin-1-yl]-6-cyano-N-cyclohexyl-5-(3,5-difluorophenyl)pyridine-3-carboxamide] | 10 to 100 nM | < 10 nM | +++ (+++=>500) | < 10 nM |
| COc1cc(C#N)cc(-c2cncc(C(=O)N[C@@H](C)C3CC3)c2N2CC[C@](C)(N)C2)c1 [1-96, 4-[(3S)-3-amino-3-methylpyrrolidin-1-yl]-5-(3-cyano-5-methoxyphenyl)-N-[(1S)-1-cyclopropylethyl]pyridine-3-carboxamide] | 100 to 1000 nM | < 10 nM | ++ (++=100 to 499) | < 10 nM |
| N#Cc1ncc(C(=O)NC23CC(C2)C3)c(N2CC[C@@](N)(CO)C2)c1-c1cc(F)cc(F)c1 [1-98, 4-[(3S)-3-amino-3-(hydroxymethyl)pyrrolidin-1-yl]-N-{bicyclo[1.1.1]pentan-1-yl}-6-cyano-5-(3,5-difluorophenyl)pyridine-3-carboxamide] | 100 to 1000 nM | < 10 nM | ++ (++=100 to 499) | < 10 nM |

Source: patent US12600709B2, “Nonpeptide somatostatin type 5 receptor agonists and uses thereof” (Crinetics Pharmaceuticals, Inc., priority 2019, dated 2026)
